Patent US20060069132A1, “Azolecarboxamide herbicides” (priority 2004, published 2006)

Assays:
large crabgrass = assay: Test A pre-/postemergence herbicide test; type: in vivo, Digitaria sanguinalis
Outline: (§1)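 Visual injury rating on a 0–100 scale (0 no effect, 100 complete control) versus untreated controls, about ten days after treatment in greenhouse. Pre: directed soil spray onto seeded sandy loam. Post: spray to runoff on plants 2–10 cm tall at one- to two-leaf stage.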

giant foxtail = assay: Test A pre-/postemergence herbicide test; type: in vivo, Setaria faberi
Outline: as §1

morningglory = assay: Test A pre-/postemergence herbicide test; type: in vivo, Ipomoea spp.
Outline: as §1

lambsquarters [1] = assay: Test B pre-/postemergence herbicide test; type: in vivo, Chenopodium album; conditions: for Lambsquarters plant response rating: postemergence, scale 0 (no effect) to 100 (complete control)
Outline: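 Greenhouse pot assay with simultaneous preemergence (treated seed) and postemergence (2–18 cm seedlings) applications of surfactant-containing, non-phytotoxic solvent formulations. Response scored visually 13–15 days later on a 0–100 scale, 100 meaning complete control.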

johnsongrass = assay: Test C pre-/postemergence herbicide test; type: in vivo, Sorghum halepense; conditions: preemergence
Outline: (§2)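 Pre- and postemergence application, solvent/surfactant formulation; post at 1- to 4-leaf stage (2–18 cm). Greenhouse 12–14 d. Visual rating vs controls, 0 = no effect, 100 = complete control.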

lambsquarters [2] = assay: Test C pre-/postemergence herbicide test; type: in vivo, Chenopodium album; conditions: preemergence
Outline: as §2

[3] = system: common (oilseed) sunflower; assay: Test C pre-/postemergence herbicide test; type: in vivo, Helianthus annuus; conditions: preemergence
Outline: as §2

[4] = system: smallflower umbrella sedge; assay: Test C flooded paddy test; type: in vivo, Cyperus difformis
[5] = Postemergence, 500 g ai/ha, 0 to 100 scale, 0 no effect, 100 complete control
[6] = Postemergence, 2000 g ai/ha, 0 to 100 scale, 0 no effect, 100 complete control
[7] = Preemergence, 2000 g ai/ha, visual rating, 0 to 100 scale (0 no effect, 100 complete control)
[8] = preemergence, 500 g ai/ha, visual injury, 0 to 100 scale (0 no effect, 100 complete control)
[9] = 125 g ai/ha, scale 0 (no effect) to 100 (complete control), visual, 12 to 14 days
[10] = 500 g ai/ha, scale 0 to 100 (0 no effect, 100 complete control), visual, 12 to 14 days

CCc1nn(C(C)(C)C)cc1C(=O)Nc1cc(C(=O)N(CC)CC)ccc1F [Compound 223]
Crabgrass, Large plant response rating (large crabgrass; [5]): 20 | Plant response rating, Crabgrass, Large (large crabgrass; [6]): 25 | Crabgrass, Large plant response rating (large crabgrass; [7]): 90 | Crabgrass, Large plant response rating (large crabgrass; [8]): 90 | Foxtail, Giant plant response rating (giant foxtail; [5]): 10 | Plant response rating, Foxtail, Giant (giant foxtail; [6]): 10 | Foxtail, Giant plant response rating (giant foxtail; [7]): 90 | Foxtail, Giant plant response rating (giant foxtail; [8]): 75 | Morningglory plant response rating (morningglory; [5]): 50 | Plant response rating, Morningglory (morningglory; [6]): 60 | Morningglory plant response rating (morningglory; [7]): 55 | Morningglory plant response rating (morningglory; [8]): 35 | Lambsquarters plant response rating (0 to 100 scale) (lambsquarters [1]; 125 g ai/ha, 0 = no effect, 100 = complete control, preemergence): 80 | Plant response rating, Lambsquarters (lambsquarters [1]; 500 g ai/ha, visual rating, 0 = no effect, 100 = complete control, preemergence): 100 | Lambsquarters plant response rating (lambsquarters [1]; 125 g ai/ha, visual rating): 60 | Lambsquarters plant response rating (lambsquarters [1]; 500 g ai/ha, visual rating): 80 | Plant response rating, Johnsongrass (johnsongrass; 62 g ai/ha, scale 0 to 100): 80 | Plant response rating, Johnsongrass (johnsongrass; [9]): 80 | Plant response rating, Lambsquarters (lambsquarters [2]; 62 g ai/ha, scale 0 to 100): 95 | Plant response rating, Lambsquarters (lambsquarters [2]; [9]): 100 | Plant response rating, Lambsquarters (lambsquarters [2]; 250 g ai/ha, scale 0-100): 100 | Plant response rating, Lambsquarters (lambsquarters [2]; [10]): 100 | Plant response rating, Sunflower ([3]; 62 g ai/ha, scale 0 to 100): 0 | Plant response rating, Sunflower ([3]; 250 g ai/ha, scale 0-100): 0 | Plant response rating, Sunflower [3, 10]: 30 | Sedge, Umbrella plant response rating ([4]; 62 g ai/ha, scale 0 to 100 (0 no effect, 100 complete control)): 0 | Sedge, Umbrella plant response rating ([4]; 125 g ai/ha, scale 0 to 100 (0 no effect, 100 complete control)): 0 | Sedge, Umbrella plant response rating ([4]; 250 g ai/ha, scale of 0 to 100, 0 is no effect, 100 is complete control): 65 | Plant response rating, Sedge, Umbrella ([4]; 500 g ai/ha, visual rating after 12 to 14 days, scale 0 to 100 (0 no effect, 100 complete control)): 85
